Reference: ChEMBL document CHEMBL1131152, “In vitro and in vivo activities of oligodeoxynucleotide-based thrombin inhibitors containing neutral formacetal linkages” (J Med Chem, 1998)

Target: Prothrombin (Homo sapiens) (UniProt P00734)
Experiment: Relative prothrombin time was determined as the activity of the test ODN (oligodeoxynucleotide) relative to that of GS-522

Structure (SMILES) | Relative PT
Cc1cn([C@H]2C[C@H](OP(=O)(O)OC[C@H]3O[C@@H](n4cnc5c(=O)nc(N)[nH]c54)C[C@@H]3OCOC[C@H]3O[C@@H](n4cnc5c(=O)[nH]c(=N)[nH]c54)C[C@@H]3OP(=O)(O)OC[C@H]3O[C@@H](n4cc(C)c(=O)[nH]c4=O)C[C@@H]3OP(=O)(O)OC[C@H]3O[C@@H](n4cnc5c(=O)nc(N)[nH]c54)C[C@@H]3OP(=O)(O)OC[C@H]3O[C@@H](n4cc(C)c(=O)[nH]c4=O)C[C@@H]3OP(=O)(O)OC[C@H]3O[C@@H](n4cnc5c(=O)nc(N)[nH]c54)C[C@@H]3OP(=O)(O)OC[C@H]3O[C@@H](n4cnc5c(=O)[nH]c(=N)[nH]c54)C[C@@H]3OP(=O)(O)OC[C@H]3O[C@@H](n4cc(C)c(=O)[nH]c4=O)C[C@@H]3OP(=O)(O)OC[C@H]3O[C@@H](n4cc(C)c(=O)[nH]c4=O)C[C@@H]3OP(=O)(O)OC[C@H]3O[C@@H](n4cnc5c(=O)[nH]c(=N)[nH]c54)C[C@@H]3OP(=O)(O)OC[C@H]3O[C@@H](n4cnc5c(=O)nc(N)[nH]c54)C[C@@H]3O)[C@@H](COP(=O)(O)O[C@H]3C[C@H](n4cc(C)c(=O)[nH]c4=O)O[C@@H]3COP(=O)(O)O[C@H]3C[C@H](n4cnc5c(=O)[nH]c(=N)[nH]c54)O[C@@H]3COP(=O)(O)O[C@H]3C[C@H](n4cnc5c(=O)nc(N)[nH]c54)O[C@@H]3COP(=O)(O)O)O2)c(=O)[nH]c1=O | 0.8
Cc1cn([C@H]2C[C@H](OCOC[C@H]3O[C@@H](n4cnc5c(=O)nc(N)[nH]c54)C[C@@H]3OP(=O)(O)OC[C@H]3O[C@@H](n4cnc5c(=O)[nH]c(=N)[nH]c54)C[C@@H]3OP(=O)(O)OC[C@H]3O[C@@H](n4cc(C)c(=O)[nH]c4=O)C[C@@H]3OCOC[C@H]3O[C@@H](n4cc(C)c(=O)[nH]c4=O)C[C@@H]3OP(=O)(O)OC[C@H]3O[C@@H](n4cnc5c(=O)[nH]c(=N)[nH]c54)C[C@@H]3OP(=O)(O)OC[C@H]3O[C@@H](n4cnc5c(=O)nc(N)[nH]c54)C[C@@H]3O)[C@@H](COP(=O)(O)O[C@H]3C[C@H](n4cnc5c(=O)nc(N)[nH]c54)O[C@@H]3COCO[C@H]3C[C@H](n4cc(C)c(=O)[nH]c4=O)O[C@@H]3COP(=O)(O)O[C@H]3C[C@H](n4cnc5c(=O)[nH]c(=N)[nH]c54)O[C@@H]3COP(=O)(O)O[C@H]3C[C@H](n4cnc5c(=O)nc(N)[nH]c54)O[C@@H]3COP(=O)(O)O[C@H]3C[C@H](n4cc(C)c(=O)[nH]c4=O)O[C@@H]3COCO[C@H]3C[C@H](n4cc(C)c(=O)[nH]c4=O)O[C@@H]3COP(=O)(O)O[C@H]3C[C@H](n4cnc5c(=O)[nH]c(=N)[nH]c54)O[C@@H]3COP(=O)(O)O[C@H]3C[C@H](n4cnc5c(=O)nc(N)[nH]c54)O[C@@H]3COP(=O)(O)O)O2)c(=O)[nH]c1=O | 0.5
Cc1cn([C@H]2C[C@H](OP(=O)(O)OC[C@H]3O[C@@H](n4cnc5c(=O)[nH]c(=N)[nH]c54)C[C@@H]3OP(=O)(O)OC[C@H]3O[C@@H](n4cc(C)c(=O)[nH]c4=O)C[C@@H]3OP(=O)(O)OC[C@H]3O[C@@H](n4cnc5c(=O)nc(N)[nH]c54)C[C@@H]3OP(=O)(O)OC[C@H]3O[C@@H](n4cnc5c(=O)[nH]c(=N)[nH]c54)C[C@@H]3OP(=O)(O)OC[C@H]3O[C@@H](n4cc(C)c(=O)[nH]c4=O)C[C@@H]3OP(=O)(O)OC[C@H]3O[C@@H](n4cc(C)c(=O)[nH]c4=O)C[C@@H]3OP(=O)(O)OC[C@H]3O[C@@H](n4cnc5c(=O)[nH]c(=N)[nH]c54)C[C@@H]3OP(=O)(O)OC[C@H]3O[C@@H](n4cnc5c(=O)nc(N)[nH]c54)C[C@@H]3O)[C@@H](COCO[C@H]3C[C@H](n4cnc5c(=O)[nH]c(=N)[nH]c54)O[C@@H]3COP(=O)(O)O[C@H]3C[C@H](n4cnc5c(=O)nc(N)[nH]c54)O[C@@H]3COP(=O)(O)O[C@H]3C[C@H](n4cc(C)c(=O)[nH]c4=O)O[C@@H]3COP(=O)(O)O[C@H]3C[C@H](n4cc(C)c(=O)[nH]c4=O)O[C@@H]3COP(=O)(O)O[C@H]3C[C@H](n4cnc5c(=O)nc(N)[nH]c54)O[C@@H]3COP(=O)(O)O[C@H]3C[C@H](n4cnc5c(=O)nc(N)[nH]c54)O[C@@H]3COP(=O)(O)O)O2)c(=O)[nH]c1=O | 0.8
Cc1cn([C@H]2C[C@H](OCOC[C@H]3O[C@@H](n4cnc5c(=O)[nH]c(=N)[nH]c54)C[C@@H]3OP(=O)(O)OC[C@H]3O[C@@H](n4cnc5c(=O)nc(N)[nH]c54)C[C@@H]3O)[C@@H](COP(=O)(O)O[C@H]3C[C@H](n4cc(C)c(=O)[nH]c4=O)O[C@@H]3COP(=O)(O)O[C@H]3C[C@H](n4cnc5c(=O)[nH]c(=N)[nH]c54)O[C@@H]3COP(=O)(O)O[C@H]3C[C@H](n4cnc5c(=O)nc(N)[nH]c54)O[C@@H]3COCO[C@H]3C[C@H](n4cc(C)c(=O)[nH]c4=O)O[C@@H]3COP(=O)(O)O[C@H]3C[C@H](n4cnc5c(=O)[nH]c(=N)[nH]c54)O[C@@H]3COP(=O)(O)O[C@H]3C[C@H](n4cc(C)c(=O)[nH]c4=O)O[C@@H]3COP(=O)(O)O[C@H]3C[C@H](n4cnc5c(=O)[nH]c(=N)[nH]c54)O[C@@H]3COP(=O)(O)O[C@H]3C[C@H](n4cnc5c(=O)nc(N)[nH]c54)O[C@@H]3COP(=O)(O)O[C@H]3C[C@H](n4cc(C)c(=O)[nH]c4=O)O[C@@H]3COP(=O)(O)O[C@H]3C[C@H](n4cc(C)c(=O)[nH]c4=O)O[C@@H]3COP(=O)(O)O[C@H]3C[C@H](n4cnc5c(=O)nc(N)[nH]c54)O[C@@H]3COP(=O)(O)O[C@H]3C[C@H](n4cnc5c(=O)[nH]c(=N)[nH]c54)O[C@@H]3COP(=O)(O)O)O2)c(=O)[nH]c1=O | 0.4
Cc1cn([C@H]2C[C@H](OP(=O)(O)OC[C@H]3O[C@@H](n4cnc5c(=O)nc(N)[nH]c54)C[C@@H]3OP(=O)(O)OC[C@H]3O[C@@H](n4cnc5c(=O)[nH]c(=N)[nH]c54)C[C@@H]3OP(=O)(O)OC[C@H]3O[C@@H](n4cc(C)c(=O)[nH]c4=O)C[C@@H]3OP(=O)(O)OC[C@H]3O[C@@H](n4cnc5c(=O)[nH]c(=N)[nH]c54)C[C@@H]3OP(=O)(O)OC[C@H]3O[C@@H](n4cc(C)c(=O)[nH]c4=O)C[C@@H]3OP(=O)(O)OC[C@H]3O[C@@H](n4cnc5c(=O)nc(N)[nH]c54)C[C@@H]3OP(=O)(O)OC[C@H]3O[C@@H](n4cnc5c(=O)[nH]c(=N)[nH]c54)C[C@@H]3OP(=O)(O)OC[C@H]3O[C@@H](n4cc(C)c(=O)[nH]c4=O)C[C@@H]3OP(=O)(O)OC[C@H]3O[C@@H](n4cc(C)c(=O)[nH]c4=O)C[C@@H]3OP(=O)(O)OC[C@H]3O[C@@H](n4cnc5c(=O)[nH]c(=N)[nH]c54)C[C@@H]3OCOC[C@H]3O[C@@H](n4cnc5c(=O)nc(N)[nH]c54)C[C@@H]3O)[C@@H](COP(=O)(O)O[C@H]3C[C@H](n4cc(C)c(=O)[nH]c4=O)O[C@@H]3COP(=O)(O)O[C@H]3C[C@H](n4cnc5c(=O)nc(N)[nH]c54)O[C@@H]3COCO[C@H]3C[C@H](n4cnc5c(=O)[nH]c(=N)[nH]c54)O[C@@H]3COP(=O)(O)O)O2)c(=O)[nH]c1=O | 0.7
Cc1cn([C@H]2C[C@H](OP(=O)(O)OC[C@H]3O[C@@H](n4cc(C)c(=O)[nH]c4=O)C[C@@H]3OP(=O)(O)OC[C@H]3O[C@@H](n4cnc5c(=O)nc(N)[nH]c54)C[C@@H]3OP(=O)(O)OC[C@H]3O[C@@H](n4cnc5c(=O)[nH]c(=N)[nH]c54)C[C@@H]3OP(=O)(O)OC[C@H]3O[C@@H](n4cc(C)c(=O)[nH]c4=O)C[C@@H]3OP(=O)(O)OC[C@H]3O[C@@H](n4cnc5c(=O)[nH]c(=N)[nH]c54)C[C@@H]3OP(=O)(O)OC[C@H]3O[C@@H](n4cc(C)c(=O)[nH]c4=O)C[C@@H]3OP(=O)(O)OC[C@H]3O[C@@H](n4cnc5c(=O)nc(N)[nH]c54)C[C@@H]3OP(=O)(O)OC[C@H]3O[C@@H](n4cnc5c(=O)[nH]c(=N)[nH]c54)C[C@@H]3OP(=O)(O)OC[C@H]3O[C@@H](n4cc(C)c(=O)[nH]c4=O)C[C@@H]3OP(=O)(O)OC[C@H]3O[C@@H](n4cc(C)c(=O)[nH]c4=O)C[C@@H]3OP(=O)(O)OC[C@H]3O[C@@H](n4cnc5c(=O)[nH]c(=N)[nH]c54)C[C@@H]3OP(=O)(O)OC[C@H]3O[C@@H](n4cnc5c(=O)nc(N)[nH]c54)C[C@@H]3O)[C@@H](COCO[C@H]3C[C@H](n4cnc5c(=O)nc(N)[nH]c54)O[C@@H]3COP(=O)(O)O[C@H]3C[C@H](n4cnc5c(=O)nc(N)[nH]c54)O[C@@H]3COP(=O)(O)O)O2)c(=O)[nH]c1=O | 0.9
Cc1cn([C@H]2C[C@H](OCOC[C@H]3O[C@@H](n4cnc5c(=O)nc(N)[nH]c54)C[C@@H]3OP(=O)(O)OC[C@H]3O[C@@H](n4cnc5c(=O)[nH]c(=N)[nH]c54)C[C@@H]3OP(=O)(O)OC[C@H]3O[C@@H](n4cc(C)c(=O)[nH]c4=O)C[C@@H]3OP(=O)(O)OC[C@H]3O[C@@H](n4cnc5c(=O)[nH]c(=N)[nH]c54)C[C@@H]3OP(=O)(O)OC[C@H]3O[C@@H](n4cc(C)c(=O)[nH]c4=O)C[C@@H]3OP(=O)(O)OC[C@H]3O[C@@H](n4cnc5c(=O)nc(N)[nH]c54)C[C@@H]3OP(=O)(O)OC[C@H]3O[C@@H](n4cnc5c(=O)[nH]c(=N)[nH]c54)C[C@@H]3OP(=O)(O)OC[C@H]3O[C@@H](n4cc(C)c(=O)[nH]c4=O)C[C@@H]3OP(=O)(O)OC[C@H]3O[C@@H](n4cc(C)c(=O)[nH]c4=O)C[C@@H]3OP(=O)(O)OC[C@H]3O[C@@H](n4cnc5c(=O)[nH]c(=N)[nH]c54)C[C@@H]3OP(=O)(O)OC[C@H]3O[C@@H](n4cnc5c(=O)nc(N)[nH]c54)C[C@@H]3O)[C@@H](COP(=O)(O)O[C@H]3C[C@H](n4cc(C)c(=O)[nH]c4=O)O[C@@H]3COP(=O)(O)O[C@H]3C[C@H](n4cnc5c(=O)nc(N)[nH]c54)O[C@@H]3COP(=O)(O)O[C@H]3C[C@H](n4cnc5c(=O)nc(N)[nH]c54)O[C@@H]3COP(=O)(O)O)O2)c(=O)[nH]c1=O | 0.7
